Measurements from PubChem BioAssay (NCI).
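Test compounds were applied to cells in 96-well plates for 48 hours at 5 doses. At the TGI there is no net growth.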

Assays:
Assay in all cases: NCI-60 cell line screen, 48 h
HOP-62 NSCLC = tested on: HOP-62 NSCLC
A498 renal = tested on: A498 renal
SN12C renal = tested on: SN12C renal
IGROV1 ovarian = tested on: IGROV1 ovarian
ACHN renal = tested on: ACHN renal
SK-OV-3 ovarian = tested on: SK-OV-3 ovarian
NCI-H460 lung = tested on: NCI-H460 lung
RXF 393 renal = tested on: RXF 393 renal
OVCAR-5 ovarian = tested on: OVCAR-5 ovarian
TK-10 renal = tested on: TK-10 renal
U251 CNS = tested on: U251 CNS
XF 498 CNS = tested on: XF 498 CNS
SNB-19 CNS = tested on: SNB-19 CNS
HT29 colon = tested on: HT29 colon
NCI-H226 lung = tested on: NCI-H226 lung
EKVX NSCLC = tested on: EKVX NSCLC
SK-MEL-2 melanoma = tested on: SK-MEL-2 melanoma
LXFL 529 NSCLC = tested on: LXFL 529 NSCLC
HOP-18 NSCLC = tested on: HOP-18 NSCLC
HL-60(TB) leukemia = tested on: HL-60(TB) leukemia
SK-MEL-5 melanoma = tested on: SK-MEL-5 melanoma
MOLT-4 leukemia = tested on: MOLT-4 leukemia
KM12 colon = tested on: KM12 colon
HCC-2998 colon = tested on: HCC-2998 colon
OVCAR-4 ovarian = tested on: OVCAR-4 ovarian
M19-MEL melanoma = tested on: M19-MEL melanoma
UACC-62 melanoma = tested on: UACC-62 melanoma
786-0 renal = tested on: 786-0 renal
DLD-1 colon = tested on: DLD-1 colon
RPMI-8226 leukemia = tested on: RPMI-8226 leukemia
DMS 114 small cell lung = tested on: DMS 114 small cell lung
NCI-H23 lung = tested on: NCI-H23 lung
HCT-15 colon = tested on: HCT-15 colon
SF-268 CNS = tested on: SF-268 CNS
SW-620 colon = tested on: SW-620 colon
UACC-257 melanoma = tested on: UACC-257 melanoma
A549 NSCLC = tested on: A549 NSCLC
UO-31 renal = tested on: UO-31 renal
SK-MEL-28 melanoma = tested on: SK-MEL-28 melanoma
OVCAR-8 ovarian = tested on: OVCAR-8 ovarian
SF-295 CNS = tested on: SF-295 CNS
SNB-75 CNS = tested on: SNB-75 CNS
SR leukemia = tested on: SR leukemia
HOP-92 NSCLC = tested on: HOP-92 NSCLC
CCRF-CEM leukemia = tested on: CCRF-CEM leukemia
CAKI-1 renal = tested on: CAKI-1 renal
NCI-H522 lung = tested on: NCI-H522 lung
M14 melanoma = tested on: M14 melanoma
K-562 leukemia = tested on: K-562 leukemia
SF-539 CNS = tested on: SF-539 CNS
DMS 273 small cell lung = tested on: DMS 273 small cell lung
KM20L2 colon = tested on: KM20L2 colon
COLO 205 colon = tested on: COLO 205 colon
MALME-3M melanoma = tested on: MALME-3M melanoma
OVCAR-3 ovarian = tested on: OVCAR-3 ovarian
LOX IMVI melanoma = tested on: LOX IMVI melanoma

Measured: TGI

CN(C)c1nc(N(C)C)sc(=O)n1
not listed: COLO 205 colon | MALME-3M melanoma | OVCAR-3 ovarian | LOX IMVI melanoma
> 100 µM: all other assays above

CC(NS(=O)(=O)c1ccc(Cl)cc1)C(=O)O (stereo not drawn)
not listed: HOP-62 NSCLC | NCI-H226 lung | HCC-2998 colon | DMS 114 small cell lung | SR leukemia
> 100 µM: all other assays above
